One series concerns HCV replicon. Put plainly: HCV replicon assay (antiviral activity, luciferase endpoint). It counts as cell-based, hepatitis C virus. The source says: (§1) Stable HCV replicons of different genotypes may be used for anti-HCV evaluation. We used the subgenomic HCV replicons of genotype 1a (H77 strain), 1b (Con1 strain), and 2a (JFH-1 strain), which are Huh7 human hepatoma cell lines that contains an HCV replicon.
The HCV replicon antiviral evaluation assay examined the effects of compounds at six serial dilutions. Human interferon alpha-2b (rIFNα-2b) and/or Sofosbuvir were included in each run as a positive control compound.
(§2) Briefly, the replicon cells were plated at 5,000 cells/well into 96-well plates that were dedicated for the analysis of cell numbers (cytotoxicity) or antiviral activity. On the following day, samples were diluted with assay media and added to the appropriate wells. Cells were processed 72 hours later when the cells were still sub-confluent. For the luciferase endpoint assay, HCV replicon levels were assessed as replicon-derived Luc activity. The concentration of drug that reduced cell viability was assessed by the fluorometric CytoTox-1 cell proliferation assay (Promega), (expressed as cell numbers). For the qRT-PCR/TaqMan assay, total RNA was extracted from the replicon cells using RNeasy 96 kit (Qiagen) according to the manufacturer's protocol. Real-time RTPCR/TaqMan assays were performed to measure copy numbers of the replicon RNA and cellular ribosomal RNA. Where applicable EC50 (concentration inhibiting HCV replicon by 50%), EC90 (concentration inhibiting HCV replicon by 90%), CC50 (concentration decreasing cell viability by 50%), CC90 (concentration decreasing cell viability by 90%) and SI (selectivity indices: CC50/EC50 and CC90/EC90) values were derived.

Series [1] has as its system cell culture-derived HCV (HCVcc). Put plainly: microbe, parasite or virus in culture. It counts as cell-based, hepatitis C virus. As to the method:
(§3) Huh7.5 cells were grown in Dulbecco's modified essential media (DMEM), 10%0/fetal bovine serum (FBS), 1% penicillin-streptomycin (pen-strep), 1% Non-essential amino acids (NEAA) in a 5% CO2 incubator at 37° C. Huh7.5 cells were seeded at 1×10^4 cells per well into 96-well plates according to Southern Research Institute standard format. Test articles were serially diluted with DMEM plus 5% FBS. The diluted compound in the amount of […] was mixed with equal volume of cell culture-derived HCV (HCVcc), then applied to appropriate wells in the plate. Human interferon alpha-2b (rIFNα-2b) and/or Sofosbuvir were included as a positive control. After 72 hr incubation at 37° C., the cells were lysed for measurement of luciferase activity using Renilla Luciferase Assay System (Promega) according to manufacturer's instruction. The number of cells in each well were determined by CytoTox-1 reagent (Promega). Test articles were tested at 6 serial dilutions in triplicate to derive, if applicable, EC50 and EC90 (concentration inhibiting HCVcc infectivity by 50% and 90%, respectively), CC50 (concentration decreasing cell viability by 50%) and SI (selectivity index: CC50/EC50) values (Table 1).

Series [2] in a line: HCV replicon assay, cell viability (CytoTox-1). Format: cell-based. To be noted: human, Huh7 hepatoma cells containing a subgenomic HCV replicon, In vitro HCV replicon assay, post-infection, read-out: CC50 (concentration decreasing cell viability by 50%). As to the method:
as §1
as §2, with “Where applicable EC50 (concentration inhibiting HCV replicon by 50%), EC90 (concentration inhibiting HCV replicon by 90%), CC50 (concentration decreasing cell viability by 50%), CC90 (concentration decreasing cell viability by 90%) and SI (selectivity indices: CC50/EC50 and CC90/EC90) values were derived.” left out

A further series in a line: in vitro. It counts as cell-based. Conditions: human. Here is the method:
as §3

Each structure is given as a SMILES string.

As to `COC(=O)C1=C(C)NC(C)=C(C(=O)OC(C)C)C1c1cccc2nonc12` (centres unmarked) [Isradipine, isradipine], the “anti-Hepatitis C activity (in words)” value (in the series on HCV replicon (HCV replicon assay); in series [1] (hepatitis C viral infectivity assay)) was “significant anti-Hepatitis C activity” in each case. Moreover, the EC50 in the series on HCV replicon (Hepatitis C virus, GT1B, 72 h, read-out: EC50 (concentration inhibiting HCV replicon by 50%)) was 51.4 µM; in series [1] (Hepatitis C virus, Huh7.5, 72 h, read-out: EC50 (concentration inhibiting HCVcc infectivity by 50%)) it was 12.6 µM. In addition, the “Selectivity index (CC50/EC50)” value in the series on HCV replicon (In vitro HCV replicon assay, post-infection) was determined as 0.99; in series [1] (In vitro HCV cc assay, pre-infection), 4.07. In addition, the results for the CC50 at 72 h (in series [2]; in the series “in vitro”) were 50.8 µM and 51.2 µM, respectively.

For the origin of these results see patent publication US20180092895A1, “METHOD OF TREATMENT OF HEPATITIS C” (priority 2016, published 2018).
